Assay results: patent US10240216B2 (priority 2013, dated 2019)

Legend:
Magnaporthe oryzae = type: cell-based; settings: at 25 μg/mL
[1] = tested on: a number of bacteria and fungi; settings: concentration of 1 mg/ml; cited from earlier work
Bacillus brevis = type: cell-based
Mucor miehei = type: cell-based
Paealomyces variotii = type: cell-based
HeLaS3 cells = settings: 50 μg/mL, 72 h
human neutrophils = settings: cited from earlier work
a number of bacteria = settings: concentration of 64 µg/mL; cited from earlier work

Cc1ccc2c(c1/C=C/C=C/C(=O)O)C(C)CC(C)C2O (stereo not shown) [arohynapene A]
inhibition of the spore germination of Magnaporthe oryzae (Magnaporthe oryzae): 100% | antimicrobial activity in vitro against a number of bacteria and fungi [1]: no antimicrobial activity

CC1Cc2ccc(CO)c(/C=C/C=C/C(=O)O)c2C(C)C1 (stereo not shown) [arohynapene B]
inhibition of the spore germination of Magnaporthe oryzae (Magnaporthe oryzae): 100% | antimicrobial activity in vitro against a number of bacteria and fungi [1]: no antimicrobial activity

Cc1ccc2c(c1/C=C/C=C/C(=O)O)[C@H](C)C[C@H](C)C2 [tanzawaic acid A]
activity in agar diffusion assay against Bacillus brevis (Bacillus brevis): slight activity | activity in agar diffusion assay against Mucor miehei (Mucor miehei): slight activity | activity in agar diffusion assay against Paealomyces variotii (Paealomyces variotii): slight activity | cytotoxic effects against HeLaS3 cells (HeLaS3 cells): cytotoxic effects | inhibition of superoxide anion production in human neutrophils (human neutrophils): inhibit superoxide anion production

C[C@@H]1C[C@@](C)(O)Cc2ccc(CO)c(/C=C/C=C/C(=O)O)c21 [tanzawaic acid G, Tanzawaic acids G and H]
activity against a number of bacteria (a number of bacteria): neither tanzawaic acids G nor H were found to be active

Tanzawaic acids A, B, C and D [tanzawaic acid B]
inhibition of superoxide anion production in human neutrophils (human neutrophils): inhibit superoxide anion production

arohynapene D
antimicrobial activity in vitro against a number of bacteria and fungi [1]: no antimicrobial activity

hynapenes A, B and C [hynapene A]
antimicrobial activity in vitro against a number of bacteria and fungi [1]: show antimicrobial activity
